This experiment addresses T1, alpha subunit of the human FcεRI receptor (Homo sapiens, UniProt P12319).
T1 construct: expressed in transfected cells; host or cells: Chinese hamster ovary (CHO FcεRI+) cells
T1 sequence (P12319 26-257): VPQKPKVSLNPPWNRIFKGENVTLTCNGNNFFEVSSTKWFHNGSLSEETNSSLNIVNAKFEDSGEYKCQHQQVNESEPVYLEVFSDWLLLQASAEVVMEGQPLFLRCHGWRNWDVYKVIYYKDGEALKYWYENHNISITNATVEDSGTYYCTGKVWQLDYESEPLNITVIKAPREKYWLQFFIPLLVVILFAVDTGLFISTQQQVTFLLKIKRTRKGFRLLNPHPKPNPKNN
In words: cell-based 125I-IgE binding inhibition assay on CHO FcεRI+ cells. The protocol:
. The following day the cells were rinsed three times with PBS and then once with F12/DMEM. Peptide stocks were reconstituted in 100 mM Hepes buffered water, pH 7.2, at a concentration of 5 mg/mL. Working concentrations of the peptide were diluted in assay buffer (see below). 75 ul, of a desired concentration of peptide was added to the top row of a separate 96 well microtiter plate and serially diluted 1:3 in 50 uL of the assay buffer (F12/DMEM, 1% BSA, 0.05% NaN3 and […] Hepes pH 7.2). Starting concentrations ranged from 50-500 uM. Next, 50 uL of the diluted peptide was transferred to the 96 microtiter well plate containing a monolayer of CHO FcεRI+ cells. After a 1 hour incubation at room temperature, 50 uL of ^125I-IgE (1.5 nM) was added to each well and incubated for an additional 45-60 minutes at 4° C. followed by 5 washes with 200 uL of assay buffer. Cells were solubilized with 200 uL of 1 N NaOH and transferred to a 96 microtiter tube for counting in a gamma counter to determine counts bound. The data were plotted using KaleidaGraph 3.0 and fitted using 4-parameter fits. IC50 values were determined for each peptide.
Six peptides based on selected clones from library #516 were synthesized and assayed for the ability to inhibit the binding of ^125I-IgE to a Chinese hamster ovary cell line expressing the alpha subunit of the IgE high affinity receptor, FcεRI. The peptides were synthesized as nine residue monomers and oxidized to allow the formation of a disulfide bridge resulting in a cyclic peptide. The size of each peptide was confirmed by mass spectrometry.

Where [1] appears, read: IgE-inhibition activity of synthetic peptides, read-out: Inhibition activity: C+hd 50 +l (uM) ± s.d.
Where [2] appears, read: inhibition of labeled IgE-binding to CHO FcεRI+ cells, read-out: Mean IC50(uM) ± S.D.

The structures appear in SMILES notation. Where two headings read alike, the source gives them in different places. Where a SMILES comes first, the peptide text is derived from it. Bridges are numbered along the chain shown (N, C = ends).

Consider `CC(C)C[C@H](NC(=O)[C@H](C)N)C(=O)N[C@H]1CSSC[C@@H](C(=O)N[C@@H](Cc2ccc(O)cc2)C(=O)N[C@H](C(N)=O)C(C)C)NC(=O)[C@H](C(C)C)NC(=O)[C@H](CCC(=O)O)NC(=O)[C@@H]2CCCN2C1=O` [IGE035, ALCPEVCYV-nh2] (H-ALCPEVCYV-NH2; disulfide 3-7), for which the “inhibiting 125I-IgE binding to cell surface expressed FcεRI (in words)” value was “not active”. Further, the IC50 under setting [1] was greater than 500 µM.
In the same order, the values of `CC(=O)N[C@@H](C)C(=O)N[C@@H](CC(C)C)C(=O)N[C@H]1CSSC[C@@H](C(=O)N[C@@H](Cc2ccc(O)cc2)C(=O)N[C@H](C(N)=O)C(C)C)NC(=O)[C@H](C(C)C)NC(=O)[C@H](CCC(=O)O)NC(=O)[C@@H]2CCCN2C1=O` [IGE036, Ac-ALCPEVCYV-nh2] (Ac-ALCPEVCYV-NH2; disulfide 3-7) are “not active” and greater than 500 µM.
On to `CSCC[C@H](NC(=O)[C@@H]1CSSC[C@H](NC(=O)[C@H](CCCNC(=N)N)NC(=O)[C@@H]2CCCN2C(=O)[C@H](CC(C)C)NC(=O)[C@@H](N)CC(N)=O)C(=O)N[C@@H]([C@@H](C)O)C(=O)N[C@@H](CCC(=O)O)C(=O)NCC(=O)N2CCC[C@H]2C(=O)N[C@@H](Cc2c[nH]c3ccccc23)C(=O)NCC(=O)N[C@@H](Cc2c[nH]c3ccccc23)C(=O)N[C@@H](C(C)C)C(=O)N1)C(=O)N[C@@H](C)C(=O)N[C@@H](C)C(=O)N[C@@H](CC(=O)O)C(N)=O` [IGE043, NLPRCTEGPWGWVCMAAD-nh2] (H-NLPRCTEGPWGWVCMAAD-NH2; disulfide 5-14), for which the IC50 under setting [2] amounted to 1.4 ± 1 µM.
Still for that read-out and setting: the result for `CC[C@H](C)[C@H](NC(=O)[C@@H]1CSSC[C@H](N)C(=O)N[C@@H](CC(C)C)C(=O)N[C@@H](CCC(=O)O)C(=O)NCC(=O)N2CCC[C@H]2C(=O)N[C@@H](Cc2c[nH]c3ccccc23)C(=O)NCC(=O)N[C@@H](Cc2c[nH]c3ccccc23)C(=O)N[C@@H](Cc2ccccc2)C(=O)N1)C(N)=O` [IGE045, CLEGPWGWFCI-nh2] (H-CLEGPWGWFCI-NH2; disulfide 1-10; N-terminus assumed) reads 300 ± 269 µM.
Same read-out and setting: the result for `CC[C@H](C)[C@H](NC(=O)[C@@H]1CSSC[C@H](N)C(=O)N[C@@H]([C@@H](C)O)C(=O)N[C@@H](CCC(=O)O)C(=O)NCC(=O)N2CCC[C@H]2C(=O)N[C@@H](Cc2c[nH]c3ccccc23)C(=O)NCC(=O)N[C@@H](Cc2c[nH]c3ccccc23)C(=O)N[C@@H](C(C)C)C(=O)N1)C(N)=O` [IGE055, CTEGPWGWVCI-nh2] (H-CTEGPWGWVCI-NH2; disulfide 1-10) reads greater than 500 µM; that for `CC[C@H](C)[C@H](NC(=O)[C@@H]1CSSC[C@H](NC(C)=O)C(=O)N[C@@H]([C@@H](C)O)C(=O)N[C@@H](CCC(=O)O)C(=O)NCC(=O)N2CCC[C@H]2C(=O)N[C@@H](Cc2c[nH]c3ccccc23)C(=O)NCC(=O)N[C@@H](Cc2c[nH]c3ccccc23)C(=O)N[C@@H](C(C)C)C(=O)N1)C(N)=O` [IGE056, Ac-CTEGPWGWVCI-nh2] (Ac-CTEGPWGWVCI-NH2; disulfide 1-10), greater than 500 µM.
Still for that read-out and setting: the result for `CSCC[C@H](NC(=O)[C@@H]1CSSC[C@H](NC(=O)[C@H](CCCNC(=N)N)NC(=O)[C@@H]2CCCN2C(=O)[C@H](CC(C)C)NC(=O)[C@H](CC(N)=O)NC(C)=O)C(=O)N[C@@H]([C@@H](C)O)C(=O)N[C@@H](CCC(=O)O)C(=O)NCC(=O)N2CCC[C@H]2C(=O)N[C@@H](Cc2c[nH]c3ccccc23)C(=O)NCC(=O)N[C@@H](Cc2c[nH]c3ccccc23)C(=O)N[C@@H](C(C)C)C(=O)N1)C(N)=O` [IGE058, Ac-NLPRCTEGPWGWVCM-nh2] (Ac-NLPRCTEGPWGWVCM-NH2; disulfide 5-14) reads 1.8 ± 1.3 µM.
